Earlier results, collected in paper PMC7884382, “A Phase 1 study of RO6870810, a novel bromodomain and extra-terminal protein inhibitor, in patients with NUT carcinoma, other solid tumours, or diffuse large B-cell lymphoma” (British Journal of Cancer, 2020).

Experiments:
NC = conditions: cited from earlier work
serotonin receptors = system: serotonin receptors; design: method as in PMID 20871596; conditions: cited from earlier work
[1] = cited from earlier work
DLBCL = system: DLBCL; design: method as in PMID 27063978; conditions: cited from earlier work

Cc1nnn(C)c1-c1cnc2c3ccc(C(C)(C)O)cc3n([C@H](c3ccccc3)C3CCOCC3)c2c1 [BMS-986158]
Response in a patient with NC harbouring BRD3-NUT fusion (NC): minor but sustained regression

Cc1sc2c(c1C)C(c1ccc(Cl)cc1)=N[C@@H](CC(=O)OC(C)(C)C)c1nnc(C)n1-2 [JQ1]
Interaction with serotonin receptors (serotonin receptors): interaction with serotonin receptors

Cc1sc2c(c1C)C(c1ccc(Cl)cc1)=N[C@@H](CC(=O)Nc1ccc(O)cc1)c1nnc(C)n1-2 [birabresib]
half-life [1]: 4 to 5 h | CRs (DLBCL; among 22 patients with DLBCL): 2 | PR (DLBCL; among 22 patients with DLBCL): 1 | Responders among patients with MYC-expressing DLBCL (DLBCL): one of five

CCNC(=O)C[C@@H]1N=C(c2ccc(Cl)cc2)c2cc(OC)ccc2-n2c(C)nnc21 [molibresib]
Responses by NUT fusion among patients with NC (NC): PRs (confirmed and unconfirmed) were mostly observed in tumours with BRD3-NUT fusions
